Results taken from patent publication US7285687B2 (priority 2002, dated 2007).
Read-outs that look alike come from different tables or passages of the source.

What was measured:
CB1 receptor = molecular target: T1, CB1 receptor (Rattus norvegicus, UniProt P20272); test: CB1 binding procedure, displacement of [3H]CP 55,940 from rat whole-brain P2 membranes
T1 construct: whole brain was homogenized and centrifuged; from tissue; host or cells: whole brain of male Sprague-Dawley rats, P2 membrane fraction
Experimental: (§1) Male ICR mice (25-32 g), obtained from Harlan (Dublin, Va.), were housed in groups of five. All animals were kept in a temperature-controlled (20-22° C.) environment with a 12-hour light-dark cycle (lights on at 7 a.m.). Separate mice were used for testing each drug dose in the in vivo behavioral procedures. Brain tissue for binding studies was obtained from male Sprague-Dawley rats (150-200 g) purchased from Harlan Laboratories (Dublin, Va.).
The methods used for tissue preparation and binding have been described previously (Compton et al., 1993) and are similar to those described by Devane et al. (1988). All assays, as described briefly below, were performed in triplicate, and the results represent the combined data from three to six individual experiments.
Following decapitation and rapid removal of the brain, whole brain was homogenized and centrifuged. The resulting pellet was termed P1. The supernatant was saved and combined with the two subsequent supernatants obtained from washing of the P1 pellet. The combined supernatant fractions were centrifuged, resulting in the P2 pellet. After further incubation and centrifuging, this pellet was resuspended in assay buffer to a protein concentration of approximately 2 mg/ml. The membrane preparation was quickly frozen in a bath solution of dry ice and 2-methylbutane (Sigma Chemical Co., St. Louis, Mo.), then stored at −80° C. for no more than 2 weeks. Prior to performing a binding assay an aliquot of frozen membrane was rapidly thawed and protein values determined by the method of Bradford (1976).
Binding was initiated by the addition of 150•g of P2 membrane to test tubes containing 1 nM of [^3H] CP 55,940 (79 Ci/mmol) and a sufficient quantity of buffer to bring the total incubation volume to 1 ml. […] Following incubation at 30° C. for 1 hr, binding was terminated by addition of ice cold buffer and vacuum filtration through pretreated filters in a 12-well sampling manifold (Millipore, Bedford, Mass.). After washing, filters were placed into plastic scintillation vials (Packard, Downer Grove, Ill.) and shaken. The quantity of radioactivity present was determined by liquid scintillation spectrometry.
(§2) In addition, multiple linear regression was used to calculate the overall degree of relationship between CB1 binding affinity and potency in the mouse measures for all active cannabinoids. […] Ki values for CB1 and CB2 binding were obtained from Scatchard displacement analysis as determined via EBDA program of the KELL software package (Biosoft, Milltown, N.J.).

male ICR mice [1] = test: Change in rectal temperature (RT) in mice, i.v.; format: in vivo, mouse; conditions: for ED50: Mus musculus, iv
Experimental: as §1
(§3) Measurement of spontaneous activity in mice occurred in standard activity chambers interfaced with a Digiscan Animal Activity Monitor (Omnitech Electronics, Inc., Columbus, Ohio). A standard tail-flick apparatus and a digital thermometer (Fisher Scientific, Pittsburgh, Pa.) were used to measure antinociception and rectal temperature, respectively.
(§4) Resorcinols were synthesized in our labs (Organix, Inc., Woburn, Mass.) according to the procedure specified below and were suspended in a vehicle of absolute ethanol, Emulphor-620 (Rhone-Poulenc, Inc., Princeton, N.J.), and saline in a ratio of 1:1:18. Drugs were administered to the mice intravenously (i.v.) in the tail vein at a volume of 0.1 ml/10 g.
(§5) Prior to testing in the behavioral procedures, mice were acclimated to the experimental setting (ambient temperature 22-24° C.) overnight. Pre-injection control values were determined for rectal temperature and tail-flick latency (in sec). Five min after i.v. injection with drug or vehicle, mice were placed in individual activity chambers and spontaneous activity was measured for 10 min. […] Tail-flick latency was measured at 20 min post-injection. Maximum latency of 10 sec was used. Antinociception was calculated as percent of maximum possible effect {% MPE=[(test−control latency)/(10-control)]×100}. Control latencies typically ranged from 1.5 to 4.0 sec. At 30 min post-injection, rectal temperature was measured. This value was expressed as the difference between control temperature (before injection) and temperatures following drug administration (° C.). Different mice (n=5-6 per dose) were tested for each dose of each compound. Each mouse was tested in each of the 3 procedures.
(§6) Based on data obtained from numerous previous studies with cannabinoids, maximal cannabinoid effects in each procedure were estimated as follows: 90% inhibition of spontaneous activity, 100% MPE in the tail flick procedure, and −6° C. change in rectal temperature. ED50's were defined as the dose at which half maximal effect occurred. For drugs that produced one or more cannabinoid effect, ED50's were calculated separately using least-squares linear regression on the linear part of the dose-effect curve for each measure in the mouse tetrad, plotted against log10 transformation of the dose. For the purposes of potency comparison, potencies were expressed as μmol/kg.

male ICR mice [2] = test: Tail-flick antinociception (TF, % MPE) in mice, i.v.; format: in vivo, mouse; conditions: for ED50: Mus musculus, iv; for T.F. % effect at dose: Table 6
Experimental: as §1, §3, §4, §5, §6

CB2 receptor = molecular target: T2, CB2 receptor (Homo sapiens, UniProt P34972); test: CB2 binding procedure, displacement of [3H]CP-55,940 from membranes of transfected CHO cells; conditions: for CB1/CB2: ratio of CB1 Ki to CB2 Ki
T2 construct: expressed in transfected cells
Experimental: Membranes for CB2 binding were obtained from CHO cells. The transfected cell line was maintained in Dublecco's Modified Eagle Medium (Gibco BRL, Grand Island, N.Y.) with 10% fetal clone II (HyClone Laboratories, Inc., Logan, Utah) plus 0.3 to 0.5 mg/ml G418 (to maintain selective pressure) under 5% CO2 at 37% C. Cells were harvested with 1 mM EDTA in phosphate-buffered saline and were centrifuged at 1000×g for 5 min at 4% C. The supernatant was saved and the P1 pellet was resuspended in centrifugation buffer. Homogenization and centrifugation were repeated twice and the combined supernatant fractions were centrifuged at 40,000×g for 30 min at 4% C. The P2 pellet was resuspended in centrifugation buffer 2 (Tris HCl, 50 mM; EDTA, 1 mM; and MgCl2, 3 mM, pH 7.4) to a protein concentration of approximately 2 mg/ml. Protein concentrations were determined by the method of Bradford (1976) using Bio-Rad Protein Assay (Bio-Rad, Richmond, Calif.) and BSA standards (fatty acid free, Sigma Chemical Co., St. Louis, Mo.). The membrane preparation was divided into amounts convenient for binding assays and frozen rapidly in dry ice and stored at −80% C.
Binding was initiated by the addition of 50•g of quickly thawed P2 membranes to test tubes containing [^3H]CP-55,940 (final reaction concentration 0.5 nM), an appropriate concentration of unlabeled CP-55,940 or test drug, and sufficient quantity of assay buffer (50 mM Tris-HCl, 1 mM EDTA, 3 mM MgCl2, 5 mg/ml bovine serum albumin, pH 7.4) to bring the total incubation volume to 0.5 ml. Concentration of [^3H]CP-55,940 in saturation studies ranged from 50 to 10,000 pM. […] CP-55,940 and all cannabinoid analogs were-prepared by suspension in assay buffer from a 1 mg/ml ethanolic stock without evaporation of the ethanol (final concentration of no more than 0.4%). In competition studies, analog concentrations ranged from 0.1 nM to 10•M. After incubation at […] for 1 hr, binding was terminated by the addition of 2 ml of ice-cold wash buffer (50 mM Tris-HCl and 1 mg/ml BSA) and vacuum filtration through pre-treated filters in a 12-well sampling manifold (Millipore, Bedford, Mass.). Reaction vessels were washed once with 2 ml of ice-cold wash buffer. Filters were placed into 7-ml plastic scintillation vials (RPI Corp., Mount Prospect, Ill.) with 4 ml of Budget-Solve (RPI Corp.). After shaking for 30 min, the radioactivity present was determined by liquid scintillation spectrometry. Three reaction vessels were used for each drug concentration in each assay. The results represent the combined data of three independent experiments. All assays were performed in siliconized test tubes, which were prepared by air drying (12 hr) inverted borosilicate tubes after two rinses with a 0.1% solution of AquaSil (Pierce, Rockford, Ill.). The GF/C glass-fiber filters (2.4 cm, Baxter, McGaw Park, Ill.) were pre-treated in a 0.1% solution of pH 7.4 polyethylenimine (Sigma Chemical Co.) for at least 6 hr.
as §2

male ICR mice [3] = test: Suppression of spontaneous activity (SA) in mice, i.v.; format: in vivo, mouse; conditions: for ED50: Mus musculus, iv
Experimental: as §1, §3, §4, §5, §6

male ICR mice [4] = test: Lethality noted in the mouse behavioral procedures, i.v.; format: in vivo; conditions: @ 30 mg/kg, Table 6
Experimental: as §1
Resorcinols were synthesized in our labs (Organix, Inc., Woburn, Mass.) according to the procedure specified below and were suspended in a vehicle of absolute ethanol, Emulphor-620 (Rhone-Poulenc, Inc., Princeton, N.J.), and saline in a ratio of 1:1:18. […]
Prior to testing in the behavioral procedures, mice were acclimated to the experimental setting (ambient temperature 22-24° C.) overnight. Pre-injection control values were determined for rectal temperature and tail-flick latency (in sec). Five min after i.v. injection with drug or vehicle, mice were placed in individual activity chambers and spontaneous activity was measured for 10 min. […] Tail-flick latency was measured at 20 min post-injection. […] Antinociception was calculated as percent of maximum possible effect {% MPE=[(test−control latency)/(10-control)]×100}. […] At 30 min post-injection, rectal temperature was measured. […]

[5] = mean ± SEM, [3H]CP 55,940, rat brain membranes, read-out: Ki(nM) CB1
[6] = 95% confidence limits in parentheses, read-out: ED50 RT (rectal temperature)
[7] = 95% confidence limits in parentheses, read-out: ED50 TF (antinociception in tail flick assay)
[8] = mean ± SEM, [3H]CP-55,940, transfected CHO cell membranes, read-out: Ki(nM) CB2
[9] = 95% confidence limits in parentheses, read-out: ED50 SA (suppression of spontaneous activity)

T2 sequence (P34972 whole entry): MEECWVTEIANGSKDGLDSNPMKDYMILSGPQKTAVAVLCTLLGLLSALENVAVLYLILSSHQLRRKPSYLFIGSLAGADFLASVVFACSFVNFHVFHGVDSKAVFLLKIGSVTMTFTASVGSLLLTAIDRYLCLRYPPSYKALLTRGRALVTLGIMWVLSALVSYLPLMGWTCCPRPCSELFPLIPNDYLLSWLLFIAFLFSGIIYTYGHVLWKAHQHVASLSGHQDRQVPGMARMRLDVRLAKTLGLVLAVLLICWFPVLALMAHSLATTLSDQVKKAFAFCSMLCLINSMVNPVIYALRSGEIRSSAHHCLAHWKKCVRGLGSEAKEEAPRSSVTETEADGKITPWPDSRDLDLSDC
T1 sequence (P20272 whole entry): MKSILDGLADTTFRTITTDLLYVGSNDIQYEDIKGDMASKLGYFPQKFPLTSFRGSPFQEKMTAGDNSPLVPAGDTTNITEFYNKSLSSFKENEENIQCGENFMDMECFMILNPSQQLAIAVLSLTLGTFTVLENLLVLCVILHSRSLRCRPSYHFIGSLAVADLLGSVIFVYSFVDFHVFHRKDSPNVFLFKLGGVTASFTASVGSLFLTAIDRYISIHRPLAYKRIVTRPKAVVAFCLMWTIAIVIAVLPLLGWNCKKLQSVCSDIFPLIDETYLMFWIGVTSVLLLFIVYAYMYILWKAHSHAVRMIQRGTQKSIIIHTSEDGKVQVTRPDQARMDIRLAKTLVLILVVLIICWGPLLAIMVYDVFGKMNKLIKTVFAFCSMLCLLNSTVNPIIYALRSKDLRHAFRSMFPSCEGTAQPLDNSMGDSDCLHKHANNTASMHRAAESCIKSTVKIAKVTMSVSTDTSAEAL

Row | Compound | Ki (CB1 receptor; Table 6, read-out: CB1 KI) | Ki (CB1 receptor; [5]) | ED50 (male ICR mice [1]; [6]) | ED50 (male ICR mice [1]; Table 6, read-out: R.T. ED50) | ED50 (male ICR mice [2]; [7]) | ED50 (male ICR mice [2]; Table 6, read-out: T.F. ED50) | Ki (CB2 receptor; Table 6, read-out: CB2 KI) | Ki (CB2 receptor; [8]) | CB1/CB2 (CB2 receptor) | ED50 (male ICR mice [3]; [9]) | ED50 (male ICR mice [3]; Table 6, read-out: S.A. ED50) | other results
1 | CCCCCCC(C)(C)c1cc(O)c(C2CCCCCC2)c(O)c1 [O-1656, 2-Cycloheptyl-5-(1′,1′-dimethyl-heptyl)-resorcinol] | 17.8 ± 1.4 nM | 18 ± 1 nM | 0.6 µmol/kg | 0.21 mg/kg | 1.2 µmol/kg | 0.39 mg/kg | 2.12 ± 0.25 nM | 2 ± 0.2 nM | 9 | 1.5 µmol/kg | 0.53 mg/kg | 
2 | CCCCCCC(C)(C)c1cc(O)c(C2CCSC2)c(O)c1 (stereo not shown) [O-1661, 2-(Tetrahydrothiophen-3-yl)-5-(1′,1′-dimethylheptyl)-resorcinol] |  |  |  |  |  |  |  |  | 5 |  | 7.65 mg/kg | 
3 | CCCCCCC(C)(C)c1cc(O)c(C2CCN(C)CC2)c(O)c1 [O-1662, 2-(1-Methylpiperidin-4-yl)-5-(1′,1′-dimethylheptyl)-resorcinol] |  |  |  |  |  |  |  |  |  |  |  | Lethality at dose (male ICR mice [4]): Lethal; R.T. effect at dose (male ICR mice [1]; @ 10 mg/kg, Table 6): 1 °C; T.F. % effect at dose (male ICR mice [2]; @ 10 mg/kg): 7 @ 10%; S.A. % effect at dose (stim) (male ICR mice [3]; stimulation, @ 10 mg/kg, Table 6): 77% stim@ 10
4 | CCCCCCC(C)(C)c1cc(O)c(C2CCCC(C)(C)C2)c(O)c1 (stereo not shown) [O-1871] | 2.3 ± 0.32 nM | 2 ± 0.3 nM | 1.3 µmol/kg | 0.37 mg/kg | 2.3 µmol/kg | 0.7 mg/kg | 0.3 ± 0.01 nM | 0.3 ± 0.01 nM | 7 | < 1 µmol/kg | 0.04 mg/kg | 
5 | CCCCCCc1ccc(O)c(C2CCCCC2)c1O [O-2010, 2-Cyclohexyl-4-hexyl resorcinol] |  |  |  |  |  |  |  |  |  |  |  | T.F. % effect at dose (male ICR mice [2]; @ 30 mg/kg): 9.0%@ 30
6 | COc1cc(C)cc(OC)c1C1CCCCC1 [O-2299, 2-Cyclohexyl-1,3-dimethoxy-5-methylbenzene] | > 10000 nM |  |  |  |  |  | > 10000 nM |  |  |  |  | 
